{"source": "patent US7271274B2", "about": "“Phenolic antioxidants for the treatment of disorders including arthritis, asthma and coronary artery disease” (AhteroGenics, Inc., priority 2004, dated 2007)", "key": {"[1]": {"settings": "clinical trials; cited from earlier work"}, "[2]": {"system": "murine model of allergic pulmonary inflammation", "settings": "cited from earlier work"}, "Balb/C mice": {"system": "Balb/C mice", "experiment": "In vivo asthma model (ovalbumin-sensitized mice, BAL fluid eosinophilia)", "settings": "25 mg/kg, sc, qd; BALF eosinophilia vs vehicle control", "protocol": "Balb/C mice (6–8 weeks old) were sensitized to ovalbumin (ova) (8 ug ova absorbed in 3.3 mg Alum inject) on days 0 and 5. On day 12, the mice were aerosol challenged with 0.5% ovalbumin dissolved in sterile saline for 1 hr in the AM, and then again in the PM (at least 4 hr apart). On day 14, the mice were anesthetized with ketamine/xylazine/acepromazine cocktail, exsanguinated, and then euthanized. Following blood collection, bronchoaveolar lavage (BAL) was performed on each animal. Total cell counts were conducted on the lavage fluid, which was subsequently diluted with cell media 1:1. Slides of the lavage fluid were made by spinning the samples with a cytospin centrifuge and then air drying. Cell differentials of the lavage fluid were determined by microscopic evaluation of hematoxylin and eosin-stained slides. Data are expressed as the % inhibition of eosinophilia in the BAL fluid compared to the vehicle control. […] The formulations used contained various mixtures of the following excipients (propylene glycol, polyethylene glycol, Tween 80, Glycofurol)."}, "IL-6": {"system": "IL-6", "experiment": "Cytokine screening: LPS-induced secretion of IL-6 from hPBMCs", "format": "cell-based", "settings": "Homo sapiens, Biological Table 2, LPS 1 μg/ml, mean ± standard deviation", "protocol": "(§1) Fresh cryopreserved hPBMCs (1 million cells/ml; Clonetics, Inc.) were pretreated with test compound for 1 hr in lymphocyte growth media-3 (Clonetics, Inc.), followed by stimulation with 1 μg/ml of LPS for another 2 hr in the presence of test compound. Conditioned media was collected and assayed for secreted TNF-α, IL-1β and […] using commercially available human ELISA kits (R&D Systems). Samples were measured in duplicate and data presented as mean ± standard deviation. Each experiment was repeated at least three times with similar results."}, "IL-1β": {"system": "IL-1β", "experiment": "Cytokine screening: LPS-induced secretion of IL-1β from hPBMCs", "format": "cell-based", "settings": "Homo sapiens, Biological Table 2, LPS 1 μg/ml, mean ± standard deviation", "protocol": "as §1"}, "VCAM-1 [3]": {"system": "VCAM-1", "experiment": "In Vitro VCAM-1 Assay - Method 2 (19 h predosing, 4 h TNFα stimulation, surface VCAM-1)", "format": "cell-based", "settings": "Homo sapiens; HAEC or HPAEC, predosed 19 hours, TNFα 1.5 ng/ml 4 hours", "protocol": "Cultured primary human aortic (HAEC) or pulmonary artery (HPAEC) endothelial cells are obtained from BioWhittaker (formerly Clonetics), and are used below passage 9. Cells are seeded in 96-well plates such that they will reach ˜95% confluency by the following day (i.e.10,000 cells/well). Compounds are reconstituted in DMSO (100%) and sonicated to ensure maximum dissolution. Dilutions are then made in DMSO to 500× of final concentrations. These stocks are then diluted 500× into cell culture media (EGM-2 Mv, BioWhittaker) and placed overnight in tissue culture incubator (37° C., 5% CO2) to allow maximum dissolution).\nMedia is removed from the cells and replaced with the prewarmed dosing media. Cells are predosed in this manner for 19 hours at 37° C., 5% CO2. Remove media again from the cells and replace with prepared dosing media containing TNFα (1.5 ng/ml). Allow stimulation to continue for 4 hours at 37° C., 5% CO2. Media is removed and saved for evaluation of secreted factors as needed. Cells are used for quantitating surface VCAM-1, followed by Hoescht nuclear stain for cell number to determine toxicity. Assay for surface VCAM-1 continues as described in Method 1. IC50's of tested compounds are tabulated in Biological Table 1."}, "Male BALB/c mice": {"system": "Male BALB/c mice", "experiment": "mBSA-induced delayed-type hypersensitivity (DTH) model of inflammation in mice", "format": "in vivo", "settings": "vehicle swelling = 100%", "protocol": "The methylated bovine serum albumin (mBSA)-induced delayed-type hypersensitivity (DTH) model of mice is generally used for screening compounds with anti-inflammatory effects (Sarnstrand et al., Pharmacol. Exp. Ther. 1999, 288, 1174–84). Compounds of Ex-1 and Ex-2 were tested in this model, dosed subcutaneously at 24 and 2 hrs prior to challenge at doses of 50 and 25 mg/kg with cyclosporin A (CSA) as positive control.\nMale BALB/c mice (20–25 g) were sensitized on day 0 by intradermal abdominal injection of 100 μL of a 1:1 emulsion of mBSA (5 mg/ml) and Freund's complete adjuvant. On day 7, the mice were challenged by injecting 25 μL of mBSA (5 mg/ml) into the footpad of the right hindpaw and the left hindpaw was injected with saline. Mice were treated by s.c. injection of test compound 24 hrs and 2 hrs before the challenge. Twenty four hours after challenge mice were sacrificed by CO2 inhalation. The feet were removed by cutting just above the heel with scissors, and the mass of the saline-injected foot was subtracted from the mass of the mBSA injected foot to determine the amount of swelling that occurred in the latter. Inhibition of swelling for test compound group was calculated, taking the swelling of the vehicle-treated group as 100%. The results from the DTH model are summarized for examples 1 and 2 in Biological Table 4 using cyclosporine A (CSA) as a positive control."}, "TNF-α": {"system": "TNF-α", "experiment": "Cytokine screening: LPS-induced secretion of TNF-α from hPBMCs", "format": "cell-based", "settings": "Homo sapiens", "protocol": "as §1"}, "VCAM-1 [4]": {"system": "VCAM-1", "experiment": "In Vitro VCAM-1 Assay - Method 1 (TNF-α stimulated endothelial cells, surface VCAM-1 ELISA)", "format": "cell-based", "settings": "Homo sapiens, Endothelial cell; HAEC or HPAEC, TNF-α 1 ng/ml with compound approximately 16 hours", "protocol": "Cell Culture and compound dosing: Cultured primary human aortic (HAEC) or pulmonary (HPAEC) endothelial cells were obtained from Clonetics, Inc., and were used below passage 9. Cells were seeded in 96 well plates such that they would reach 90–95% confluency by the following day. On the following day the cells were stimulated with TNF-α (1 ng/ml) in the presence or absence of compounds dissolved in DMSO such that the final concentration of DMSO is 0.25% or less. To establish a dose curve for each compound, four concentrations in 2- to 5-fold increments were used. Cells were exposed to TNF-α and compounds for approximately 16 hours. The next day the cells were examined under microscope to score for visual signs of toxicity or cell stress.\nFollowing 16 hr exposure to TNF-α and compound the media was discarded and the cells were washed once with Hanks Balanced Salt Solution (HBSS)/Phosphate buffered saline (PBS) (1:1). Primary antibodies against VCAM-1 (0.25 μg/ml in HBSS/PBS+5% FBS) were added and incubated for 30–60 minutes at 37° C. Cells were washed with HBSS/PBS three times, and secondary antibody Horse Radish Peroxidase (HRP)-conjugated goat anti-mouse IgG (1:500 in HBSS/PBS+5% FBS) were added and incubated for 30 minutes at 37° C. Cells were washed with HBSS/PBS four time and TMB substrate were added and incubated at room temperature in the dark until there was adequate development of blue color. The length of time of incubation was typically 5–15 minutes. 2N sulfuric acid was added to stop the color development and the data was collected by reading the absorbance on a BioRad ELISA plate reader at OD 450 nm. The results are expressed as IC50 values (the concentration (micromolar) of compound required to inhibit 50% of the maximal response of the control sample stimulated by TNF-α only). IC50's of tested compounds are tabulated in Biological Table 1."}, "Female Lewis rats": {"system": "Female Lewis rats", "experiment": "In vivo rheumatoid arthritis model (Freund's complete adjuvant, paw swelling)", "settings": "paw swelling vs vehicle control", "protocol": "Female Lewis rats (200–250 g) were sensitized with Freund's complete adjuvant (100 ug) by subcutaneous injection at the base of the tail. Paw swelling was monitored by measuring the volume of each foot with a plethysmometer on days 5, 8, 12–15. Animals were euthanized on day 15. […] Data is expressed as the % inhibition of paw swelling (AUC of the paw volume vs time curve d5–15) compared with vehicle control. The formulations used contained various mixtures of the following excipients (propylene glycol, polyethylene glycol, Tween 80, Glycofurol)."}, "[5]": {"system": "LDL receptor-deficient rabbits", "settings": "cited from earlier work"}, "[6]": {"settings": "25 mg/Kg s.c. 24 hrs and 2 hrs before challenge"}, "[7]": {"settings": "50 mg/Kg s.c. 24 hrs and 2 hrs before challenge"}, "[8]": {"settings": "Biological Table 3, LPS-induced secretion from hPBMN cells, average of at least three determinations"}, "[9]": {"settings": "Biological Table 2, hPBMCs, LPS 1 μg/ml, mean ± standard deviation"}}}
{"smiles": "CC(C)(Sc1cc(C(C)(C)C)c(O)c(C(C)(C)C)c1)Sc1cc(C(C)(C)C)c(OC(=O)CCC(=O)O)c(C(C)(C)C)c1", "note": "[AGI-1067]", "values": [{"measurement": "QTc prolongation", "setting": "[1]", "result": "did not cause QTc prolongation"}]}
{"smiles": "COc1cc(CC(=O)N[C@@H](CC(C)C)c2cc(CCC(=O)O)on2)ccc1NC(=O)Nc1ccccc1C", "note": "[CP-664511]", "values": [{"measurement": "airway eosinophil infiltration", "setting": "[2]", "result": "inhibited airway eosinophil infiltration"}]}
{"smiles": "CC(C)(Sc1cc(C(C)(C)C)c(O)c(C(C)(C)C)c1)Sc1cc(C(C)(C)C)c(OC[C@H](O)[C@@H](O)CO)c(C(C)(C)C)c1", "note": "[Ex-1, 4-{2,6-Di-tert-butyl-4-[1-(3,5-di-tert-butyl-4-hydroxyphenylsulfanyl)-1-methylethyl-sulfanyl]phenoxy}butane-1,2(S),3(S)-triol]", "values": [{"measurement": "melting point", "result": "69 to 71", "unit": "°C"}, {"measurement": "Inhibition of BAL fluid eosinophilia (asthma model)", "setting": "Balb/C mice", "result": 87, "unit": "percentage"}, {"measurement": "IC50", "setting": "IL-6", "result": "1.7 ± 0.9", "unit": "µM"}, {"measurement": "IC50", "setting": "IL-1β", "result": "7.7 ± 0.6", "unit": "µM"}, {"measurement": "IC50", "setting": "VCAM-1 [3]", "result": 9, "unit": "µM"}, {"measurement": "Percent Inhibition (of swelling)", "setting": "Male BALB/c mice; [6]", "result": "+40%"}, {"measurement": "Percent Inhibition (of swelling)", "setting": "Male BALB/c mice; [7]", "result": "+65%"}, {"measurement": "IC50", "setting": "TNF-α; [8]", "result": 5.1, "unit": "µM"}, {"measurement": "IC50", "setting": "TNF-α; [9]", "result": "4 ± 1", "unit": "µM"}, {"measurement": "IC50", "setting": "VCAM-1 [4]", "result": 7, "unit": "µM"}]}
{"smiles": "CC(C)(Sc1cc(C(C)(C)C)c(O)c(C(C)(C)C)c1)Sc1cc(C(C)(C)C)c(OC[C@@H](O)[C@H](O)CO)c(C(C)(C)C)c1", "note": "[Ex-2, 4-{2,6-Di-tert-butyl-4-[1-(3,5-di-tert-butyl-4-hydroxyphenylsulfanyl)-1-methylethylsulfanyl]-phenoxy}butane-1,2(R),3(R)-triol]", "values": [{"measurement": "Rheumatoid arthritis model (25 mg/kg, sc, qd, inhibition of paw swelling in percentage)", "setting": "Female Lewis rats", "result": 75, "unit": "percentage"}, {"measurement": "melting point", "result": "69 to 71", "unit": "°C"}, {"measurement": "Inhibition of BAL fluid eosinophilia (asthma model)", "setting": "Balb/C mice", "result": 65, "unit": "percentage"}, {"measurement": "IC50", "setting": "IL-6", "result": "1.2 ± 0.3", "unit": "µM"}, {"measurement": "IC50", "setting": "IL-1β", "result": 8, "unit": "µM"}, {"measurement": "Percent Inhibition (of swelling)", "setting": "Male BALB/c mice; [6]", "result": "+25%"}, {"measurement": "Percent Inhibition (of swelling)", "setting": "Male BALB/c mice; [7]", "result": "+60%"}, {"measurement": "IC50", "setting": "TNF-α; [8]", "result": 1.6, "unit": "µM"}, {"measurement": "IC50", "setting": "TNF-α; [9]", "result": "3.3 ± 0.3", "unit": "µM"}, {"measurement": "IC50", "setting": "VCAM-1 [4]", "result": 5, "unit": "µM"}]}
{"smiles": "CC(C)(Sc1cc(C(C)(C)C)c(O)c(C(C)(C)C)c1)Sc1cc(C(C)(C)C)c(O)c(C(C)(C)C)c1", "note": "[probucol, 4,4′-(isopropylidenedithio) bis(2,6-di-tert-butylphenol)]", "values": [{"measurement": "progression of atherosclerosis", "setting": "[5]", "result": "slow the progression of atherosclerosis"}]}
